# Data: patent EP1733731A1, “New uses of Glycerol derivatives in particular in cosmetics” (AGRO INDUSTRIE RECHERCHES ET DEVELOPPEMENTS (A.R.D.), priority 2005, dated 2006)
# Tests used:
# proMMP-1 = test: activation of proMMP-1 by plasmin in cultured dermal fibroblasts (western blot); assay type: cell-based; conditions: 25 µg/mL; 2,5 µg/mL plasmin; Figure 1C-4
# Experimental: (§1) • La Figure 1 représente la modulation de l'activation des proMMP-3 (Figures 1A et 1B) et proMMP-1 (Figure 1C) in vitro comme en culture par des extraits glycolipidiques du gluten de blé. • Figure 1A : 100 nM de proMMP-3 (Figure 1A-1) sont incubés avec 65 nM de plasmine en absence (Figure 1A-2) ou en présence de glycolipides (Figure 1A-3 et 4), à la concentration de 50µg/mL pour M1-Sucres (Figure 1A-3) et 25 µg/mL pour ED 23-11 (Figure 1A-4). • Figure 1B : des fibroblastes dermiques sont ensemencés en plaque 24 puits à raison de […] cellules par puits jusque confluence. Après une mise au repos de 18 heures, les cellules sont incubées en présence (Figure 1B-2, 3 et 4) ou non (Figure 1B-1) de 2,5 µg/mL de plasmine ainsi que des glycolipides M1(-Sucres) (Figure 1B-3) et ED 23-11 (Figure 1B-4) aux mêmes concentrations que précédemment. • Figure 1C : des fibroblastes dermiques sont ensemencés en plaque 24 puits à raison de […] cellules par puits jusque confluence. Après une mise au repos de 18 heures, les cellules sont incubées en présence (Figure 1C-2, 3 et 4) ou non (Figure 1C-1) de 2,5 µg/mL de plasmine ainsi que des glycolipides M1(-Sucres) (Figure 1C-3) et ED 23-11 (Figure 1C-4) aux mêmes concentrations que précédemment. Dans l'ensemble des figures 1A, 1B et 1C, la réaction est arrêtée aux temps indiqués par addition de 0,3 mg/ml d'aprotinine. […]
# plasmine humaine = target: T1, plasmine humaine (Homo sapiens, UniProt P00747); test: activation of proMMP-3 by plasmin in vitro (western blot); assay type: biochemical; conditions: 25 µg/mL; 65 nM plasmin, 100 nM proMMP-3; Figure 1A-4
# T1 construct: connus pour interagir avec la plasmine via son domaine kringle V; testé in vitro sur l'activité amidolytique de la plasmine à l'aide d'un substrat synthétique (S-2251, Chromogénix)
# Experimental: as §1
# T1 sequence (P00747 97-580 limits assumed): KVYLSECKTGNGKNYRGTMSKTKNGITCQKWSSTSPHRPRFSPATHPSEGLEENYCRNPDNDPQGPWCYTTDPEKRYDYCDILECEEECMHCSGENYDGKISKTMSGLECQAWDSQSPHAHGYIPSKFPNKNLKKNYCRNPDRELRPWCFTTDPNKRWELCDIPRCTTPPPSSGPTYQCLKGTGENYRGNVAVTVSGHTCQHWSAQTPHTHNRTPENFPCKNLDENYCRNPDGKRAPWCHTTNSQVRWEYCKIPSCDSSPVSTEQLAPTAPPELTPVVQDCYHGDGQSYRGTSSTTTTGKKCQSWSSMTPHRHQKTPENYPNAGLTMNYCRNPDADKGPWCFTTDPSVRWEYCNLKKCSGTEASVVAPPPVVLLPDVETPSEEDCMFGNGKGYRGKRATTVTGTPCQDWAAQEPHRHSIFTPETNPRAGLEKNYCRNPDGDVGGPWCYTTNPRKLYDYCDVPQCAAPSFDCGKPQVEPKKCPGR
# T1 sequence (P00747 581-810 limits assumed): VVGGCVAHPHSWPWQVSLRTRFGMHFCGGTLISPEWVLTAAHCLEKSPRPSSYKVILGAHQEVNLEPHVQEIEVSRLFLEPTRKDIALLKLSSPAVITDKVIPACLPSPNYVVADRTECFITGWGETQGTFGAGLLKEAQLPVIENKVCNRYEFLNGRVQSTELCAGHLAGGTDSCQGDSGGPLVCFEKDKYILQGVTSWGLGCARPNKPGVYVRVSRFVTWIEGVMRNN
smiles,measurement,setting,value
"CCCCC/C=C\C/C=C\CCCCCCCCOC[C@H](CO[C@@H]1O[C@H](COC(=O)CCCCCCCCCCCCCCC)[C@H](O)[C@H](O)[C@H]1O)OCCCCCCCC/C=C\C/C=C\CCCCC [ED23-11, 1,2-di-O-linoléyl-3-O-[6'-O-palmitoyl-β-D-galactopyranosyl]-sn-glycérol]",activation de la proMMP-1,proMMP-1,inhibition significative
same,activation de la proMMP-3 par la plasmine,plasmine humaine,inhibition
